Data: paper PMC7782499, “Progerinin, an optimized progerin-lamin A binding inhibitor, ameliorates premature senescence phenotypes of Hutchinson-Gilford progeria syndrome” (Communications Biology, 2021)
“And” between values parts separate entries of the source, which are not always exact repeats. Identical values can stand only once.

Tested on: Lmna G609G/+ mouse
Assay: Body weight of Lmna G609G/+ mice
Assay type: in vivo
Conditions: for Lmna G609G/+ body weight, Ave: group average; for Lmna G609G/+ body weight: individual mouse
Excerpt: Fig. 3 In vivo favorable effect of SLC-D011. A Gross morphology of Lmna^G609G/G609G mice (10 weeks old) was ameliorated after injection with SLC-D011. At the same age, the experimental group (D011) of mice were larger than vehicle-injected control (Con) subjects regardless of gender. B, C SLC-D011 increases body weight B and extends life span C of Lmna^G609G/G609G progeria model mouse (Con: n = 8; SLC-D011: n = 8). Compared with 14.8 weeks of average (ave) life span with maximum (max) life span of 15.5 weeks, 20 mg/kg of intraperitoneal (i.p) injection (twice a week) of SLC-D011 could extend the life span upto 19 weeks (max = 21 weeks). Lmna^G609G/G609G mice were injected with SLC-D011 from age of 5-week old, *p < 0.05. D Gross morphology of SLC-D011 injected Lmna^G609G/+ mouse. […] E SLC-D011 increases body weights of Lmna^G609G/+ mice (Con: n = 10; SLC-D011: n = 11), *p < 0.05. F Favorable effect of SLC-D011 on life span of Lmna^G609G/+ mice. Compared with vehicle-injected control group (ave = 46.7 weeks and max = 48 weeks), SLC-D011 treatment obviously extended the average life span to 63 weeks (max = 64 weeks). The injection was started from 32 weeks old, **p < 0.001. “Con” means vehicle (a solvent composed of DMSO and PBS)-injected mouse group. TEXT PRINTED IN THE PICTURE: (C) D011: Kaplan-Meier survival curve in Lmna^G609G/G609G: Ave=19; Kaplan-Meier survival curve in Lmna^G609G/G609G: Max=21 | (F) D011: Kaplan-Meier survival curve in Lmna^G609G/+: Ave=63; Kaplan-Meier survival curve in Lmna^G609G/+: Max=64 DOUBTS OF THE COPYIST ABOUT THIS PICTURE: Panels C and F: the Ave/Max labels are not printed with a group name. They are assigned to D011 (solid curve) or Con (dashed curve) only by their position beside the curves. / Panel C Ave=14.8, Max=15.5 and panel F Ave=46.7, Max=48 stand beside the dashed Con curve. They are left out because Con is the control group, not a substance. / No unit is printed with the Ave/Max values. Only the axis reads Age (weeks).
Animal experiments were performed in a facility certified by the Association for Assessment and Accreditation of Laboratory Animal Care in compliance with animal policies approved by Pusan National University. The mouse work was performed under the study protocol PNU-2019-2181, as approved by the Institutional Animal Care and Use Committee. Lmna^G609G/609G mice were generated by timed mating of heterozygous Lmna^G609G/+ provided by Carlos López-Otín (Universidad de Oviedo, Asturias, Oviedo, Spain). SLC-D011 was mixed with dimethyl sulfoxide (DMSO) and phosphate-buffered saline (PBS). It was then intraperitoneally injected into mice (20 mg/kg twice per week from 5-week-old). SLC-D011 and lonafarnib were orally administrated to mice daily at a concentration of 10 mg/ml in monoolein-based solution. Lonafarnib was generously provided by Merck, the Progeria Research Foundation (PRF) and the PRF Lonafarnib Pre-clinical Drug Supply Program. Control mice were treated with monoolein-based solution alone in the same way. Lmna^G609G/609G mice were treated with clear chemical solution throughout the life span, starting from 5 weeks of age. Lmna^G609G/+ mice were treated via intraperitoneal and oral administrations, starting from 32 weeks of age.
Fig. S10. Or al administration of SLC-D011 suppresses premature aging features of LmnaG609G/+ mi c e . A.
Gross morphology of SLC-D011 treated Lmna G609G/+ mice at 36 weeks old. B. Oral administration of SLC-
D011 increases body weight s of LmnaG609G/+ mi c e (untreated: n=11; SLC-D011: n=12), * p<0.05. C. […]
intensity of H3K9me3 levels in lung, liver, and kidney tissues of age-matched Lmn a +/+ mouse, untreated
LamnG609G/+ mouse and two progerinin- treated LmnaG609G/+ mice (n = 2 independent experiments; one
Student’s t -test), **p < 0.001,*p< 0.05, N.S: not significant .AU, arbitrary units.
Fig. S12. […] A. SLC-D011, compar ed to lonafarnib, reduces […]

[1] = column after week 64 (head empty), IP injection with SLC-D011, ratio to week 32
[2] = week 32, IP injection with SLC-D011, ratio to week 32
[3] = week 33, IP injection with SLC-D011, ratio to week 32
[4] = week 34, IP injection with SLC-D011, ratio to week 32
[5] = week 35, IP injection with SLC-D011, ratio to week 32
[6] = week 36, IP injection with SLC-D011, ratio to week 32
[7] = week 37, IP injection with SLC-D011, ratio to week 32
[8] = week 38, IP injection with SLC-D011, ratio to week 32
[9] = week 39, IP injection with SLC-D011, ratio to week 32
[10] = week 40, IP injection with SLC-D011, ratio to week 32
[11] = week 41, IP injection with SLC-D011, ratio to week 32
[12] = week 42, IP injection with SLC-D011, ratio to week 32
[13] = week 43, IP injection with SLC-D011, ratio to week 32
[14] = week 44, IP injection with SLC-D011, ratio to week 32
[15] = week 45, IP injection with SLC-D011, ratio to week 32
[16] = week 46, IP injection with SLC-D011, ratio to week 32
[17] = week 47, IP injection with SLC-D011, ratio to week 32
[18] = week 48, IP injection with SLC-D011, ratio to week 32
[19] = week 49, IP injection with SLC-D011, ratio to week 32
[20] = week 50, IP injection with SLC-D011, ratio to week 32
[21] = week 51, IP injection with SLC-D011, ratio to week 32
[22] = week 52, IP injection with SLC-D011, ratio to week 32
[23] = week 53, IP injection with SLC-D011, ratio to week 32
[24] = week 54, IP injection with SLC-D011, ratio to week 32
[25] = week 55, IP injection with SLC-D011, ratio to week 32
[26] = week 56, IP injection with SLC-D011, ratio to week 32
[27] = week 57, IP injection with SLC-D011, ratio to week 32
[28] = week 58, IP injection with SLC-D011, ratio to week 32
[29] = week 59, IP injection with SLC-D011, ratio to week 32
[30] = week 60, IP injection with SLC-D011, ratio to week 32
[31] = week 61, IP injection with SLC-D011, ratio to week 32
[32] = week 62, IP injection with SLC-D011, ratio to week 32
[33] = week 63, IP injection with SLC-D011, ratio to week 32
[34] = week 64, IP injection with SLC-D011, ratio to week 32

CC1(C)Oc2cc3oc(=O)ccc3cc2C[C@@H]1OC/C=C/c1ccccc1 [SLC-D011]
Lmna G609G/+ body weight, Ave [1]: 0
Lmna G609G/+ body weight [1]: 0
Lmna G609G/+ body weight, Ave (oral administration, week 36, relative body weight): 1
Lmna G609G/+ body weight, Ave (oral administration, week 38, relative body weight): 1.017
Lmna G609G/+ body weight, Ave (oral administration, week 40, relative body weight): 1.063
Lmna G609G/+ body weight, Ave (oral administration, week 42, relative body weight): 0.9995
Lmna G609G/+ body weight, Ave (oral administration, week 44, relative body weight): 0.9298
Lmna G609G/+ body weight, Ave (oral administration, week 46, relative body weight): 0.9013
Lmna G609G/+ body weight, Ave (oral administration, week 48, relative body weight): 0.862
Lmna G609G/+ body weight, Ave (oral administration, week 50, relative body weight): 0.8331
Lmna G609G/+ body weight, Ave (oral administration, week 52, relative body weight): 0.7877
Lmna G609G/+ body weight, Ave (oral administration, week 54, relative body weight): 0.7841
Lmna G609G/+ body weight, Ave (oral administration, week 56, relative body weight): 0.7247
Lmna G609G/+ body weight, Ave (oral administration, week 58, relative body weight): 0.7038
Lmna G609G/+ body weight, Ave (oral administration, week 60, relative body weight): 0.6602
Lmna G609G/+ body weight, Ave (oral administration, week 62, relative body weight): 0.5992
Lmna G609G/+ body weight, Ave (oral administration, week 64, relative body weight): 0.3905
Lmna G609G/+ body weight, Ave (oral administration, week 66, relative body weight): 0
Lmna G609G/+ body weight, Ave [2]: 1
Lmna G609G/+ body weight [2]: 1
Lmna G609G/+ body weight, Ave [3]: 1.01
Lmna G609G/+ body weight [3]: 1 and 1.038
Lmna G609G/+ body weight, Ave [4]: 1.003
Lmna G609G/+ body weight [4]: 1 and 0.9583 and 1.038
Lmna G609G/+ body weight, Ave [5]: 0.9948
Lmna G609G/+ body weight [5]: 1 and 0.9167 and 1.038
Lmna G609G/+ body weight, Ave [6]: 0.9886
Lmna G609G/+ body weight [6]: 1 and 0.9583
Lmna G609G/+ body weight, Ave [7]: 0.9733
Lmna G609G/+ body weight [7]: 1 and 0.9167
Lmna G609G/+ body weight, Ave [8]: 0.9619
Lmna G609G/+ body weight [8]: 0.9565 and 0.9167 and 1
Lmna G609G/+ body weight, Ave [9]: 0.9549
Lmna G609G/+ body weight [9]: 0.9565 and 0.9167 and 0.9615
Lmna G609G/+ body weight, Ave [10]: 0.925
Lmna G609G/+ body weight [10]: 0.913 and 0.875 and 0.9615 and 0.963
Lmna G609G/+ body weight, Ave [11]: 0.925
Lmna G609G/+ body weight [11]: 0.913 and 0.875 and 0.9615 and 0.963
Lmna G609G/+ body weight, Ave [12]: 0.9069
Lmna G609G/+ body weight [12]: 0.913 and 0.8333 and 0.9231 and 0.963
Lmna G609G/+ body weight, Ave [13]: 0.9077
Lmna G609G/+ body weight [13]: 0.913 and 0.875 and 0.9231 and 0.9259
Lmna G609G/+ body weight, Ave [14]: 0.8732
Lmna G609G/+ body weight [14]: 0.8696 and 0.7917 and 0.9231 and 0.9259
Lmna G609G/+ body weight, Ave [15]: 0.8778
Lmna G609G/+ body weight [15]: 0.8696 and 0.8333 and 0.9231 and 0.8889
Lmna G609G/+ body weight, Ave [16]: 0.8769
Lmna G609G/+ body weight [16]: 0.8696 and 0.7917 and 0.9615 and 0.8889
Lmna G609G/+ body weight, Ave [17]: 0.8478
Lmna G609G/+ body weight [17]: 0.8261 and 0.7917 and 0.9231 and 0.8519
Lmna G609G/+ body weight, Ave [18]: 0.8359
Lmna G609G/+ body weight [18]: 0.8261 and 0.75 and 0.9231 and 0.8519
Lmna G609G/+ body weight, Ave [19]: 0.8036
Lmna G609G/+ body weight [19]: 0.7826 and 0.75 and 0.8846 and 0.7778
Lmna G609G/+ body weight, Ave [20]: 0.8111
Lmna G609G/+ body weight [20]: 0.7826 and 0.7917 and 0.8846 and 0.7778
Lmna G609G/+ body weight, Ave [21]: 0.8111
Lmna G609G/+ body weight [21]: 0.7826 and 0.7917 and 0.8846 and 0.7778
Lmna G609G/+ body weight, Ave [22]: 0.7901
Lmna G609G/+ body weight [22]: 0.7826 and 0.75 and 0.8462
Lmna G609G/+ body weight, Ave [23]: 0.7931
Lmna G609G/+ body weight [23]: 0.7826 and 0.7917 and 0.8462
Lmna G609G/+ body weight, Ave [24]: 0.7747
Lmna G609G/+ body weight [24]: 0.7391 and 0.7917 and 0.8077
Lmna G609G/+ body weight, Ave [25]: 0.7712
Lmna G609G/+ body weight [25]: 0.7391 and 0.7917 and 0.8077
Lmna G609G/+ body weight, Ave [26]: 0.7636
Lmna G609G/+ body weight [26]: 0.7391 and 0.75 and 0.8077
Lmna G609G/+ body weight, Ave [27]: 0.7611
Lmna G609G/+ body weight [27]: 0.7391 and 0.75 and 0.8077
Lmna G609G/+ body weight, Ave [28]: 0.746
Lmna G609G/+ body weight [28]: 0.6957 and 0.6667 and 0.8077
Lmna G609G/+ body weight, Ave [29]: 0.6892
Lmna G609G/+ body weight [29]: 0.7391 and 0 and 0.8077
Lmna G609G/+ body weight, Ave [30]: 0.6894
Lmna G609G/+ body weight [30]: 0.6957 and 0.7692
Lmna G609G/+ body weight, Ave [31]: 0.6156
Lmna G609G/+ body weight [31]: 0.6087 and 0.7692
Lmna G609G/+ body weight, Ave [32]: 0.5947
Lmna G609G/+ body weight [32]: 0 and 0.6923
Lmna G609G/+ body weight, Ave [33]: 0.5548
Lmna G609G/+ body weight [33]: 0.6923
Lmna G609G/+ body weight, Ave [34]: 0.2637
Lmna G609G/+ body weight [34]: 0.6154
